From patent publication US10047081B2, “BACE1 inhibitors” (Hoffmann-La Roche Inc., priority 2015, dated 2018)

Columns and labels:
Aβ40 in brain = assay: Lowering of Aβ40 in brain of wild-type mice; assay type: in vivo; settings: brain Aβ40 as % of control (vehicle group), 30 mg/kg per os, mouse, after 4 h
Protocol: Lowering of Aβ40 in Brain of Wild-Type Mice:
Animals and Housing Conditions.
Animals were maintained in a 12/12 h light/dark cycle, with lights starting at 6 a.m., and experiments were conducted during the light phase. Animal housing and experimental procedures were in line with ethical and legal guidelines and were authorized by local veterinary authorities.
Female C57B1/6J mice were treated with a dose of 30 mg/kg of the compounds, 3-4 animals per treatment group. The test compound was dissolved in 5% EtOH, 10% Solutol, and was applied per os at 10 mL/kg. After 4 h, the animals were sacrificed and brain and plasma were collected. The brain was cut into halves and immediately frozen on dry ice. Brain was used for measurement of Aβ40 and plasma was used for determination of compound exposure. […] Brain tissue was homogenized in 2% DEA buffer in a Roche MagnaLyser (20″, 4000 rpm) and subsequently centrifuged for 1 h at 100000 g. DEA was reduced to 0.2% in 50 mM NaCl and one-half of the DEA lysate was passed over an Oasis Solid phase extraction plate (Waters; cat. no. 186000679), which had been activated with MeOH and equilibrated in dH2O (1 mL each). After washes in 10% and 30% MeOH (1 mL each), the Aβ-peptides were eluted in 0.8 mL of 2% NH4OH in 90% MeOH. The eluate was dried over a N2 flow, and the dried sample was reconstituted in 30 μL of AlphaLISA assay buffer. Aβ40 was determined by an AlphaLISA assay (Perkin-Elmer). In a white 96-well, half area microplate (Perkin-Elmer cat. no. 6005561), 20 μL of the reconstituted sample were mixed with 5 μL of biotinylated BAP-24 (specific for C-terminus of Aβ40) (Brockhaus, M.; Grunberg, J.; Rohrig, S.; Loetscher, H.; Wittenburg, N.; Baumeister, R.; Jacobsen, H.; Haass, C. Caspasemediated cleavage is not required for the activity of presenilins in amyloidogenesis and NOTCH signaling. NeuroReport 1998, 9, 1481-1486) stock=4.4 mg/mL, f.c.5.5 μg/mL), and 5 μL 252Q6 acceptor beads (252Q6 antibody, Invitrogen AMB0062) had been previously conjugated with AlphaLISA Acceptor beads (Perkin-Elmer cat. no. 6772002); final dilution 1:500). The mix was incubated for 1 h at RT in the dark. Then 20 μL of Streptavin-coated Donor Beads (Perkin-Elmer cat. no. 6760002, final dilution 1:125) were added and this final mix was incubated in the dark for another 30 min at RT before RFU was measured in an AlphaScreen Reader (Perkin-Elmer Envision 2104). The value obtained for Ap40 in the treated animals was related to the value in the vehicle group and is given in %. Alternatively a commercial ELISA was used for Aβ40 determination (Wako ELISA: (“Human/Rat β Amyloid (40) ELISA kit Wako II”; cat nr. 294-64701) following the manufacture's instruction. Also here the Aβ-lowering efficacy was calculated as percentage of the vehicle group.

[1] = molecular target: T1, recombinant human cathepsin E (Homo sapiens, UniProt P14091); assay: Cathepsin E fluorescent substrate kinetic assay; assay type: biochemical; settings: pH 4.5, substrate MR121-CKLVFFAEDW
T1 construct: purchased R&D Systems
T1 sequence (P14091 54-396): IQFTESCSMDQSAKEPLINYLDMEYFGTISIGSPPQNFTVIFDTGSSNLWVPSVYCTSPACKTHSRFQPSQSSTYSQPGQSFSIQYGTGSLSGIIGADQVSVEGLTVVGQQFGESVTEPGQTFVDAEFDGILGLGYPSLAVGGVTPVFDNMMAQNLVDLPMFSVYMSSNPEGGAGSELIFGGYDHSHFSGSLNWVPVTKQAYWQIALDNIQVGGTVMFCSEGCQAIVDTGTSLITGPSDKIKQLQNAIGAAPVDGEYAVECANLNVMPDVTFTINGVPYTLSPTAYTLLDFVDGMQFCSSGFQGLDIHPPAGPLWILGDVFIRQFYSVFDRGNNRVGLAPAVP
Source text: Cathepsin D and Cathepsin E Fluorescent Substrate Kinetic Assays
The MR121 fluorescence assays described below are based on the fact that MR121 forms a non-fluorescent ground state complex with tryptophan. In solution this formation occurs at millimolar concentrations of tryptophan. The mechanism can be used to design a generic biochemical assay for proteases. A substrate peptide is labeled at the N-terminus with tryptophan and at the C-terminus with the fluorophore MR121 (for cathepsin D the 10 amino acid peptide WTSVLMAAPC-MR121 was used; for cathepsin E, MR121-CKLVFFAEDW was used). In absence of protease activity, the substrates remain intact and the MR121 fluorescence is reduced by the high local Trp-concentration. If the substrates are cleaved by the enzymes the MR121 fluorescence is recovered.
The fluorescent substrate cathepsin D and cathepsin E kinetic assays were performed at room temperature in 384-well microtiter plates (black with clear flat bottom, non-binding surface plates from Corning) in a final volume of 51 μl. The test compounds were serially diluted in DMSO (15 concentrations, ⅓ dilution steps) and 1 μl of diluted compounds were mixed for 10 min with 40 μl of cathepsin D (from human liver, Calbiochem) diluted in assay buffer (100 mM sodium acetate, 0.05% BSA, pH 5.5; final concentration:200 nM) or with 40 μl of recombinant human cathepsin E (R&D Systems) diluted in assay buffer (100 mM sodium acetate, 0.05% BSA, pH 4.5; final concentration:0.01 nM). After addition of 10 μl of the cathepsin D substrate WTSVLMAAPC-MR121 diluted in cathepsin D assay buffer (final concentration:300 nM) or 10 μl of the cathepsin E substrate MR121-CKLVFFAEDW diluted in cathepsin E assay buffer (final concentration:300 nM), the plates were strongly shaken for 2 minutes. The enzymatic reaction was followed in a plate: vision reader (Perkin Elmer) (excitation wavelength:630 nm; emission:695 nm) for at least 30 minutes in a kinetic measurement detecting an increase of MR121 fluorescence during the reaction time. The slope in the linear range of the kinetic was calculated and the IC50 of the test compounds were determined using a four parameter equation for curve fitting.

| IC50 [1] [µM] | Structure (SMILES) | in vivo effect (Aβ40 in brain) |
| --- | --- | --- |
| 79 | CN=[S@@]1(=O)C[C@@](C)(c2cc(-c3cc(-c4ncc(Cl)cn4)no3)ccc2F)N=C(N)C1(C)C [Example 6, (1R,3R)-5-amino-3-(5-(3-(5-chloropyrimidin-2-yl)isoxazol-5-yl)-2-fluorophenyl)-3,6,6-trimethyl-1-(methylimino)-3,6-dihydro-2H-1,4-thiazine 1-oxide 2,2,2-trifluoroacetate] | A (A = less than 60% of control @ 30 mg/kg mouse) |
| 182 | CN=[S@@]1(=O)C[C@@](C)(c2cc(-c3cc(-c4cnc(OC)cn4)no3)ccc2F)N=C(N)C1(C)C [Example 7, (1R,3R)-5-amino-3-(2-fluoro-5-(3-(5-methoxypyrazin-2-yl)isoxazol-5-yl)phenyl)-3,6,6-trimethyl-1-(methylimino)-3,6-dihydro-2H-1,4-thiazine 1-oxide 2,2,2-trifluoroacetate] | B (B = less than 90% of control @ 30 mg/kg mouse) |
| 78 | CN=[S@@]1(=O)C[C@@](C)(c2cc(-c3cc(-c4cnc(OCC(F)F)cn4)no3)ccc2F)N=C(N)C1(C)C [Example 5, (1R,3R)-5-amino-3-(5-(3-(5-(2,2-difluoroethoxy)pyrazin-2-yl)isoxazol-5-yl)-2-fluorophenyl)-3,6,6-trimethyl-1-(methylimino)-3,6-dihydro-2H-1,4-thiazine 1-oxide 2,2,2-trifluoroacetate] | A (A = less than 60% of control @ 30 mg/kg mouse) |
| 167 | [2H]C([2H])([2H])N=[S@@]1(=O)C[C@@](C)(c2cc(-c3cc(-c4cnc(OC)cn4)no3)ccc2F)N=C(N)C1(C)C [Example 24, (1R,3R)-3-[2-fluoro-5-[3-(5-methoxypyrazin-2-yl)isoxazol-5-yl]phenyl]-3,6,6-rimethyl-1-oxo-1-(trideuteriomethylimino)-2H-1,4-thiazin-5-amine 2,2,2-trifluoroacetate] | A (A = less than 60% of control @ 30 mg/kg mouse) |
